Article PMC6138693, “Structural determinants of Rab11 activation by the guanine nucleotide exchange factor SH3BP5” (Nature Communications, 2018)

Columns and labels:
Rab11A [1] = molecular target: T1, Rab11A (Homo sapiens, UniProt P62491, S25N, form not given); test: Mant-GDP loading, then fluorescence release on GEF-driven exchange; type: binding; details: labelled compound; without SH3BP5
T1 construct: Rab11A with C-terminal His-tag kept, N-terminal GST cut by TEV; E. coli BL21 C41 (residues 1-211 given for the His-tagged HDX construct)
T1 sequence (P62491 1-211 S25N, form open): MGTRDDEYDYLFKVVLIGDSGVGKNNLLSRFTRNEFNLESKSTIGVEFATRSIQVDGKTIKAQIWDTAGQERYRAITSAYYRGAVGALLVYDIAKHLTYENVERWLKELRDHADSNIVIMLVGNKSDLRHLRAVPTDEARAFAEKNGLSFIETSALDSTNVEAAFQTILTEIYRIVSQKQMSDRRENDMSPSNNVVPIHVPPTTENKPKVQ

Rab11A [2] = molecular target: T2, Rab11A (Homo sapiens, UniProt P62491); test: as above; type: binding; details: labelled compound; nucleotide site; Mg2+, 100 uM GTPgammaS, SH3BP5 as exchange factor
T2 construct: Rab11A with C-terminal His-tag kept, N-terminal GST cut by TEV; E. coli BL21 C41 (residues 1-211 given for the His-tagged HDX construct)
T2 sequence (P62491 1-211): as the sequence (P62491 1-211 S25N, form open) above, with N25S counted along it

Rab11A [3] = molecular target: T3, Rab11A (Homo sapiens, UniProt P62491, S40F, form not given); test: as above; type: binding; details: labelled compound; nucleotide site; Mg2+, 100 uM GTPgammaS, with and without SH3BP5
T3 construct: Rab11A with C-terminal His-tag kept, N-terminal GST cut by TEV; E. coli BL21 C41 (residues 1-211 given for the His-tagged HDX construct)
T3 sequence (P62491 1-211 S40F, form open): as the sequence (P62491 1-211 S25N, form open) above, with N25S, S40F counted along it

Rab11A [4] = molecular target: T4, Rab11A (Homo sapiens, UniProt P62491, R82C, form not given); test: as above; type: binding; details: labelled compound; nucleotide site; Mg2+, 100 uM GTPgammaS, with and without SH3BP5
T4 construct: Rab11A with C-terminal His-tag kept, N-terminal GST cut by TEV; E. coli BL21 C41 (residues 1-211 given for the His-tagged HDX construct)
T4 sequence (P62491 1-211 R82C, form open): as the sequence (P62491 1-211 S25N, form open) above, with N25S, R82C counted along it

Rab11A [5] = molecular target: T5, Rab11A (Homo sapiens, UniProt P62491, I44A, form not given); test: as above; type: binding; details: labelled compound; nucleotide site; Mg2+, 100 uM GTPgammaS, with and without SH3BP5
T5 construct: Rab11A with C-terminal His-tag kept, N-terminal GST cut by TEV; E. coli BL21 C41 (residues 1-211 given for the His-tagged HDX construct)
T5 sequence (P62491 1-211 I44A, form open): as the sequence (P62491 1-211 S25N, form open) above, with N25S, I44A counted along it

Rab11A [6] = molecular target: T6, Rab11A (Homo sapiens, UniProt P62491, F36A, form not given); test: as above; type: binding; details: labelled compound; nucleotide site; Mg2+, 100 uM GTPgammaS, with and without SH3BP5
T6 construct: Rab11A with C-terminal His-tag kept, N-terminal GST cut by TEV; E. coli BL21 C41 (residues 1-211 given for the His-tagged HDX construct)
T6 sequence (P62491 1-211 F36A, form open): as the sequence (P62491 1-211 S25N, form open) above, with N25S, F36A counted along it

Rab2A = molecular target: T7, Rab2A (Homo sapiens, UniProt P61019); test: Mant-GDP loading, fluorescence release assay; type: binding; details: labelled compound; nucleotide site; Mg2+, 100 uM GTPgammaS, SH3BP5 as exchange factor
T7 construct: recombinant in E. coli, N-terminal GST cut by TEV
T7 sequence (P61019 whole entry): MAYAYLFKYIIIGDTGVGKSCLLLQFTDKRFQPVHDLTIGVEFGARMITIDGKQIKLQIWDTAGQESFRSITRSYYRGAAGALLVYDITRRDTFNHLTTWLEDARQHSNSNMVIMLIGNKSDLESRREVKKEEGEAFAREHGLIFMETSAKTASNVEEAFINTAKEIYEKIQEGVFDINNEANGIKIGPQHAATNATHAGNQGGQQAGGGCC

Rab11A [7] = molecular target: T8, Rab11A (Homo sapiens, UniProt P62491, L38P, form not given); test: Mant-GDP loading, then fluorescence release on GEF-driven exchange; type: binding; details: labelled compound; nucleotide site; Mg2+, 100 uM GTPgammaS, with and without SH3BP5
T8 construct: Rab11A with C-terminal His-tag kept, N-terminal GST cut by TEV; E. coli BL21 C41 (residues 1-211 given for the His-tagged HDX construct)
T8 sequence (P62491 1-211 L38P, form open): as the sequence (P62491 1-211 S25N, form open) above, with N25S, L38P counted along it

Rab11A [8] = molecular target: T9, Rab11A (Homo sapiens, UniProt P62491, Q70L, form not given); test: as above; type: binding; details: labelled compound; nucleotide site; Mg2+, 100 uM GTPgammaS, SH3BP5 as exchange factor
T9 construct: Rab11A with C-terminal His-tag kept, N-terminal GST cut by TEV; E. coli BL21 C41 (residues 1-211 given for the His-tagged HDX construct)
T9 sequence (P62491 1-211 Q70L, form open): as the sequence (P62491 1-211 S25N, form open) above, with N25S, Q70L counted along it

Rab12 = molecular target: T10, Rab12 (Homo sapiens, UniProt Q6IQ22); test: Mant-GDP loading, fluorescence release assay; type: binding; details: labelled compound; nucleotide site; Mg2+, 100 uM GTPgammaS, SH3BP5 as exchange factor
T10 construct: recombinant in E. coli, N-terminal GST cut by TEV
T10 sequence (Q6IQ22 whole entry): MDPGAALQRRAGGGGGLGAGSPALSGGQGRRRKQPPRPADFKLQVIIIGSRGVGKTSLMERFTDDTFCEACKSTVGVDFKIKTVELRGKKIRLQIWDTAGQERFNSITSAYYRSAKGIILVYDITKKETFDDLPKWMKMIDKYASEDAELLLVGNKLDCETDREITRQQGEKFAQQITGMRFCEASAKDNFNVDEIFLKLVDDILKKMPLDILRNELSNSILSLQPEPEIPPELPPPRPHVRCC

Rab25 = molecular target: T11, Rab25 (Homo sapiens, UniProt P57735); test: Mant-GDP loading, then fluorescence release on GEF-driven exchange; type: binding; details: labelled compound; nucleotide site; Mg2+, 100 uM GTPgammaS, SH3BP5 as exchange factor
T11 construct: C-terminal His-tag, N-terminal GST cut by TEV; E. coli Rosetta
T11 sequence (P57735 whole entry): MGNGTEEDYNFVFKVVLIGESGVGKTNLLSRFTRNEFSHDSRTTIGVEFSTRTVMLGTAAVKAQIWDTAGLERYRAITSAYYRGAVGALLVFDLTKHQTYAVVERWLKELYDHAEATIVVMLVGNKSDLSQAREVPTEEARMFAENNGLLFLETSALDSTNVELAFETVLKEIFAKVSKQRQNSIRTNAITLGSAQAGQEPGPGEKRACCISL

Rab14 = molecular target: T12, Rab14 (Homo sapiens, UniProt P61106); test: Mant-GDP loading, fluorescence release assay; type: binding; details: labelled compound; nucleotide site; Mg2+, 100 uM GTPgammaS, SH3BP5 as exchange factor
T12 construct: recombinant in E. coli, N-terminal GST cut by TEV
T12 sequence (P61106 whole entry): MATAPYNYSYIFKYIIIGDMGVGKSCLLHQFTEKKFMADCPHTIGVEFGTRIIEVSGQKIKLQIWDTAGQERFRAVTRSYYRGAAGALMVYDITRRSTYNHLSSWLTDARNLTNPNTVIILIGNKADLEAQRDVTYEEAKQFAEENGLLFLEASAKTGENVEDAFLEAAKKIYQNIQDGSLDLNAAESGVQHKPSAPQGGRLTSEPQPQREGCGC

Rab4B = molecular target: T13, Rab4B (Homo sapiens, UniProt P61018); test: Mant-GDP loading, fluorescence release assay; type: binding; details: labelled compound; nucleotide site; Mg2+, 100 uM GTPgammaS, SH3BP5 as exchange factor
T13 construct: recombinant in E. coli, N-terminal GST cut by TEV
T13 sequence (P61018 whole entry): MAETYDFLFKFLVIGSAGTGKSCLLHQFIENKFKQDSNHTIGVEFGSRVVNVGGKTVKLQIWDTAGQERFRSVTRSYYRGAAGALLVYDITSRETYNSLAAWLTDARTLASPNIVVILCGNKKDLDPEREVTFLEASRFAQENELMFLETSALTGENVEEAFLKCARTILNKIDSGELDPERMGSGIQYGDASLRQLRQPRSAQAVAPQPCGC

Rab11A [9] = molecular target: T14, Rab11A (Homo sapiens, UniProt P62491, K24R, form not given); test: Mant-GDP loading, then fluorescence release on GEF-driven exchange; type: binding; details: labelled compound; nucleotide site; Mg2+, 100 uM GTPgammaS, with and without SH3BP5
T14 construct: Rab11A with C-terminal His-tag kept, N-terminal GST cut by TEV; E. coli BL21 C41 (residues 1-211 given for the His-tagged HDX construct)
T14 sequence (P62491 1-211 K24R, form open): as the sequence (P62491 1-211 S25N, form open) above, with K24R, N25S counted along it

Rab8 = molecular target: T15, Rab8 (Homo sapiens, UniProt P61006); test: Mant-GDP loading, fluorescence release assay; type: binding; details: labelled compound; nucleotide site; Mg2+, 100 uM GTPgammaS, SH3BP5 as exchange factor
T15 construct: gene RAB8A; recombinant in E. coli, N-terminal GST cut by TEV
T15 sequence (P61006 whole entry): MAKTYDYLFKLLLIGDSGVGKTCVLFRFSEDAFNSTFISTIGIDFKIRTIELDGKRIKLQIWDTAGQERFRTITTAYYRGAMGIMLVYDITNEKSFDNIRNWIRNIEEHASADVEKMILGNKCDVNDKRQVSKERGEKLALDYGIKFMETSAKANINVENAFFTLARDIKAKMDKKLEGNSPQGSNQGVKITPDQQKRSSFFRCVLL

[10] = molecular target: WT Rab11A (1–211, C-term his) (human) (UniProt P62491)
Sequence of WT Rab11A (1–211, C-term his) (human) (P62491 1-211): as the sequence (P62491 1-211 S25N, form open) above, with N25S counted along it

Molecule: CNc1ccccc1C(=O)O[C@H]1C[C@H](n2cnc3c(=O)[nH]c(N)nc32)O[C@@H]1COP(=O)(O)OP(=O)(O)O [Mant-GDP, 3-(N-methyl-anthraniloyl)-2-deoxy-GDP]
- Mant-GDP loading, then fluorescence release on GEF-driven exchange (Rab11A [1]): Rab11A (S25N) caused rapid release of Mant-GDP even in the absence of SH3BP5
- Mant-GDP loading, then fluorescence release on GEF-driven exchange (Rab11A [2]): Rab11 isoforms Rab11A and Rab25 loaded with the fluorescent GDP analog
- Mant-GDP loading, then fluorescence release on GEF-driven exchange (Rab11A [3]): Rab2A (L38P), Rab8 (S40F), and Rab14 (K41P) were also found to decrease GEF activity
- Mant-GDP loading, then fluorescence release on GEF-driven exchange (Rab11A [4]): with R82 only partially decreasing SH3BP5 GEF activity
- Mant-GDP loading, then fluorescence release on GEF-driven exchange (Rab11A [5]): F36 and I44 residues, with mutation of these residues to Alanine
- Mant-GDP loading, then fluorescence release on GEF-driven exchange (Rab11A [6]): F36 and I44 residues, with mutation of these residues to Alanine
- Mant-GDP loading, fluorescence release assay (Rab2A): panel of evolutionarily related Rab GTPases loaded with Mant-GDP
- Mant-GDP loading, then fluorescence release on GEF-driven exchange (Rab11A [7]): Rab2A (L38P), Rab8 (S40F), and Rab14 (K41P) were also found to decrease GEF activity
- Mant-GDP loading, then fluorescence release on GEF-driven exchange (Rab11A [8]): GEF assays on Q70L Rab11A showed a slightly elevated GEF-mediated nucleotide exchange rate
- Mant-GDP loading, fluorescence release assay (Rab12): panel of evolutionarily related Rab GTPases loaded with Mant-GDP
- Mant-GDP loading, then fluorescence release on GEF-driven exchange (Rab25): Rab11 isoforms Rab11A and Rab25 loaded with the fluorescent GDP analog
- Mant-GDP loading, fluorescence release assay (Rab14): panel of evolutionarily related Rab GTPases loaded with Mant-GDP
- Mant-GDP loading, fluorescence release assay (Rab4B): panel of evolutionarily related Rab GTPases loaded with Mant-GDP
- Mant-GDP loading, then fluorescence release on GEF-driven exchange (Rab11A [9]): this mutant had rapid nucleotide exchange even in the absence of SH3BP5
- Mant-GDP loading, fluorescence release assay (Rab8): panel of evolutionarily related Rab GTPases loaded with Mant-GDP

B1: SH3BP5 (LNQ52AAA) (natural protein)
chain: MDAALKRSRSEEPAEILPPARDEEEEEEEGMEQGLEEEEEVDPRIQGELEKAAASTDDINRRETELEDARQKFRSVLVEATVKLDELVKKIGKAVEDSKPYWEARRVARQAQLEAQKATQDFQRATEVLRAAKETISLAEQRLLEDDKRQFDSAWQEMLNHATQRVMEAEQTKTRSELVHKETAARYNAAMGRMRQLEKKLKRAINKSKPYFELKAKYYVQLEQLKKTVDDLQAKLTLAKGEYKMALKNLEMISDEIHERRRSSAMGPRGCGVGAEGSSTSVEDLPGSKPEPDAISVASEAFEDDSCSNFVSEDDSETQSVSSFSSGPTSPSEMPDQFPAVVRPGSLDLPSPVSLSEFGMMFPVLGPRSECSGASSPECEVERGDRAEGAENKTSDKANNNRGLSSSSGSGGSSKSQSSTSPEGQALENRMKQLSLQCSKGRDGIIADIKMVQIG
- GEF activity on Rab11A (Mant-GDP release), mutant (1000 nM) compared with WT SH3BP5 (52 nM) (fold decrease) [10]: > 100

B2: SH3BP5 (LE250AK) (natural protein)
chain: MDAALKRSRSEEPAEILPPARDEEEEEEEGMEQGLEEEEEVDPRIQGELEKLNQSTDDINRRETELEDARQKFRSVLVEATVKLDELVKKIGKAVEDSKPYWEARRVARQAQLEAQKATQDFQRATEVLRAAKETISLAEQRLLEDDKRQFDSAWQEMLNHATQRVMEAEQTKTRSELVHKETAARYNAAMGRMRQLEKKLKRAINKSKPYFELKAKYYVQLEQLKKTVDDLQAKLTLAKGEYKMALKNAKMISDEIHERRRSSAMGPRGCGVGAEGSSTSVEDLPGSKPEPDAISVASEAFEDDSCSNFVSEDDSETQSVSSFSSGPTSPSEMPDQFPAVVRPGSLDLPSPVSLSEFGMMFPVLGPRSECSGASSPECEVERGDRAEGAENKTSDKANNNRGLSSSSGSGGSSKSQSSTSPEGQALENRMKQLSLQCSKGRDGIIADIKMVQIG
- GEF activity on Rab11A (Mant-GDP release), mutant (1000 nM) compared with WT SH3BP5 (52 nM) (fold decrease) [10]: > 100
